Legend:
NRK-52E cells = assay: LAMP-1 immunofluorescence (KE1, disturbance of lysosomal function); type: cell-based, rat; conditions: for BMC10, KE1: in vitro POD from KE dose-response, LAMP-1 intensity, NRK-52E, 24 h treatment, n = 3; for MOE, KE1: margin of exposure: BMC10 in NRK-52E vs rat plasma/serum concentration (cmax or css)
Procedure: (§1) For immunocytochemistry experiments, cells were seeded into 8-well chamber slides (Ibidi) at a density of 140 cells per µL in 300 µL growth medium and were allowed to grow for 48 h (NRK-52E) or 10 d (RPTEC/TERT1) respectively. For treatment, stock solutions (1,000 µM) of compounds dissolved in growth medium were freshly prepared and serial dilutions were made before exposure of cells for 24 h. After treatment, cells were washed twice with 150 µL PBS and fixed with 150 µL 4% paraformaldehyde in 1 x PBS for 10 min at room temperature. After fixation, cells were washed 10 min with 150 µL PBS on an orbital shaker followed by permeabilization with 150 µL 0.2% Triton X-100 in 1 x PBS for 5 min at room temperature on an orbital shaker. The permeabilized cells were washed twice with 1 x PBS (150 µL) for 10 min at room temperature on an orbital shaker and then incubated with 150 µL 5% BSA dissolved in 1 x PBS for 1 h at room temperature to block unspecific binding sites. After blocking, 100 µL primary antibody diluted 1:100 in 1% BSA in 1 x PBS were directly pipetted onto the cells and incubated overnight at 4°C. The following antibodies were employed for NRK-52E cells: Anti-LAMP-1 monoclonal IgG1 kappa mouse antibody (Santa Cruz; sc-20011), anti-Cathepsin D mouse monoclonal IgG2 kappa antibody (Santa Cruz; sc-377124); for RPTEC/TERT1 cells: Anti-LAMP-2 monoclonal mouse antibody (Santa Cruz; sc-18822), anti-Cathepsin D mouse monoclonal IgG2b kappa (Novus Biologicals; NBP1-04278); for both cell lines anti-megalin mouse monoclonal IgG1 antibody (Santa Cruz, sc-515772).
After incubation with primary antibody, cells were washed three times for 15 min with 0.2% Tween in 1 x PBS (150 µL) on an orbital shaker. Cells were incubated for 1 h at room temperature with 100 µL CFL 488-conjugated mouse IgG kappa binding protein (1:50) (m-IgGκ BP-CFL 488; Santa Cruz, sc-516176). After incubation the cells were washed three times for 15 min with 0.2% Tween in 1 x PBS on an orbital shaker and once with 150 µL sterile water. […] To preserve fluorescence 50–100 µL DAPI mounting medium (Vectashield®; Vectorlab, Biozol) was added to the cells and chamber slides were stored at 4°C in the dark until image acquisition.
Images were taken with a TCS SP5 II confocal microscope with an HCX PL APO lambda blue 63.0 × 1.40 OIL UV objective (Leica Microsystems, Wetzlar, GER) (n = 10 cells/treatment group). […] Before quantification, images were blinded and randomized. Quantification of fluorescence intensity was performed using NIH Image® software. […] The mean values of the pixel intensities were automatically calculated by the software and imported in Excel for further processing.

RPTEC/TERT1 cells = assay: LAMP-2 immunofluorescence (KE1, disturbance of lysosomal function); type: cell-based, human; conditions: for BMC10, KE1: in vitro POD from KE dose-response, LAMP-2 intensity, RPTEC/TERT1, 24 h treatment, n = 3 independent experiments; for MOE, lowest across KEs: in vitro PODs in RPTEC/TERT1 vs human plasma concentrations at therapeutic doses; for MOE, KE1: margin of exposure: BMC10 in RPTEC/TERT1 vs human plasma/serum concentration (cmax or css)
Procedure: as §1
After incubation with primary antibody, cells were washed three times for 15 min with 0.2% Tween in 1 x PBS (150 µL) on an orbital shaker. Cells were incubated for 1 h at room temperature with 100 µL CFL 488-conjugated mouse IgG kappa binding protein (1:50) (m-IgGκ BP-CFL 488; Santa Cruz, sc-516176). After incubation the cells were washed three times for 15 min with 0.2% Tween in 1 x PBS on an orbital shaker and once with 150 µL sterile water. Phalloidin-tetramethylrhodamine B isothiocyanate (TRITC) was used to stain the cytoskeleton and was diluted in 100% methanol to a stock concentration of 0.1 mg/ml and further diluted in 1 x PBS to a working concentration of 0.095 µM. After cells were washed once with 1 x PBS for 10 min at room temperature 150 µL phalloidin-TRITC working solution was added and the cells were incubated on an orbital shaker at room temperature for 60–90 min. After incubation, phalloidin-TRITC solution was aspirated, and the cells were washed once with 1 x PBS. Chamber slides were allowed to dry for 15 min at room temperature. To preserve fluorescence 50–100 µL DAPI mounting medium (Vectashield®; Vectorlab, Biozol) was added to the cells and chamber slides were stored at 4°C in the dark until image acquisition.
Images were taken with a TCS SP5 II confocal microscope with an HCX PL APO lambda blue 63.0 × 1.40 OIL UV objective (Leica Microsystems, Wetzlar, GER) (n = 10 cells/treatment group). The maximum excitation and emission settings for image acquisition were the following: Vectashield® antifade mounting medium with DAPI (λex 360 nm & λem 460 nm), for CFL 488-conjugated mouse IgG kappa binding protein (λex 490 nm & λem 525 nm) and phalloidin-TRITC (λex 545 nm & λem 573 nm). Before quantification, images were blinded and randomized. Quantification of fluorescence intensity was performed using NIH Image® software. Using the tool “Plot Profile” we generated a two-dimensional graph of the intensity of pixels along a reference line (6.35 µm) drawn across the cytoplasm of cells. The mean values of the pixel intensities were automatically calculated by the software and imported in Excel for further processing.

Row | Substance | BMC10, KE1 (NRK-52E cells) [µM] | MOE, KE1 (NRK-52E cells) | BMC10, KE1 (RPTEC/TERT1 cells) [µM] | MOE, lowest across KEs (RPTEC/TERT1 cells) | MOE, KE1 (RPTEC/TERT1 cells)
1 | Colistin | 36.2 | 3.5 – 7.1 | 4.3 | 0.5 | 0.5 – 10.2
2 | Polymyxin B | 13.7 | 1.9 – 2.0 | 4.2 | 1 | 1.0 - 7.4
